Reference: patent publication US11179452B2, “Antigen specific multi epitope vaccines” (priority 2006, dated 2021)
No end group written: not given here.

Experiments:
PBMC = experiment: Proliferation, direct presentation of peptide via PBMC (monocytes); format: cell-based, human
Description: (§1) Proliferation analysis was conducted in three different methods. In all three methods, plates were cultured for 3-5 days under visual control and then 0.5 […]Cu/well of 3[H] (Amersham) was added for additional culture of to 18 h at 37° C. In the last step, plates were harvested and the radioactive counts were measured in a □ counter. • 1. DC indirect presentation: In the first method, 100 µl of 2×10^6 thawed PBL were placed in U-shape Bottom 96 well plate (Nunc) with RPMI medium supplemented with 5% H AB serum, L-Glutamine, Sodium Pyruvate, MEM-EAGLE non-essential amino-acids, HEPES and Gentamycin. At the next stage 100 µl of 25×10^4 peptide-pulsed DC were added to each three wells of PBL and underwent proliferation analysis as described above. • 2. PBL direct presentation: In the 2nd method, 100 µl of 2×10^6 PBL were placed in Flat Bottom 96 well plates (Corning) and stimulated with different concentrations (0.05 ug/ml-2 ug/ml) of peptides. In the next step the cells underwent proliferation analysis as described above. • 3. PBMC direct presentation: In third method PNMC were used under similar conditions as described for the second method.
b. Direct presentation of the peptides via PBMC i.e. monocytes
(§2) Five experiments were performed according to the protocol described in material and methods with buffy-coat enriched PBLs obtained from six different naive donors (obtained from the Israeli blood bank).

PBL = experiment: Proliferation of PBL, DC indirect presentation (peptide-pulsed autologous DC); format: cell-based, human
Description: Human PBMC were separated from buffy coat samples of naive donors using Ficoll UNI-SEPmaxi tube. Separated cells were suspended in RPMI medium supplemented with 10% FCS, L-Glutamine, Sodium Pyruvate, MEM-EAGLE non-essential amino-acids, HEPES and Gentamycin Sulphate (Bet-Haemek Industries, IL) and cultivated for 4 h at 37° C. in a culture dish (Corning 150 mm×25 mm). Adherent cells were collected and cultured for 7 days in serum free DCCM-1 medium supplemented with L-Glutamine, huIL-4 (1000 IU/ml) (Cytolab IL) and GM-CSF-80 ug/ml (Cytolab IL). On day seven floating cells were collected and loaded with 50 ug/ml of examined peptide for 18 h at 37° C.
as §1
In the first set of experiments, the 21mer ImMucin, its different 9mer epitopes and other control epitopes (Table 3) were evaluated in proliferation assays with the aim of finding their optimal mode of presentation, stimulated dose as well as their peak of activity (time wise).
To evaluate the most efficient method for priming of PBLs with the different peptides, the following methods were compared:
a. In-direct presentation of the peptide via Autologues-pulsed DC
as §2

[1] = optimal dose required for PBL activation, average of 5 experiments, six donors

## MTPGTQSPFFLLLLLTVLTVV [ImMucin]
PBMC; naive donors, representative of 5 experiments
  PBL Index of stimulation (SI) via PBMC: 2
PBMC; [1]
  Optimal dose via PBMC: 0.05 to 1 µg/mL
PBMC; visual inspection daily during 5 days, average of 5 experiments
  Peak of Proliferation (Hours) via PBMC: 120 h
PBL; naive donors, CPM sample / CPM control, representative of 5 experiments
  PBL Index of stimulation (SI) via DC: 4
PBL; one out of five experiments, six donors
  IS (SI of the peptides as indicated in Table 7): 4
PBL; [1]
  Optimal dose via DC: 12.5-25 × × 10e6/well
PBL; two donors
  IS (as indicated in Table 12): 2.8
PBL; visual inspection by light microscopy daily during 5 days, average of 5 experiments
  Peak of Proliferation (Hours) via DC: 96 h
